According to publication PMC10530208 (Cell reports, 2023):
Counter-ions that a name gives are not always drawn.

Tests used:
C. parvum [1] = assay: Initial screen of metabolites on C. parvum growth in HCT-8 cells; type: cell-based, Cryptosporidium parvum; conditions: 1 mM or 0.1 mM, 24 hpi
HCT-8 cells [2] = assay: Initial metabolite screen: host cell numbers; type: cell-based, human; conditions: 1 mM
C. parvum [3] = assay: C. parvum growth assay in HCT-8 cells: indole analog screen and dose-response; type: cell-based, Cryptosporidium parvum; conditions: for Effect on Cp infection in the indole analog screen: 1 mM, HCT-8 cells; for EC50: Cryptosporidium parvum, HCT-8, 24 h, read-out: Cp EC50
HCT-8 cells [4] = assay: Host nuclei ratio with mitochondrial inhibitors; type: cell-based, human; conditions: 40 μM and 20 μM
C. parvum [5] = assay: C. parvum growth assay with mitochondrial inhibitors; type: cell-based, Cryptosporidium parvum; conditions: read-out: Cp EC50
Cp mitosome = assay: MitoTracker staining of indole treated C. parvum; type: cell-based, Cryptosporidium parvum; conditions: indole 1.76 mM, 7CNI 1 mM, CCCP 10 μM; 2 h or 24 h
C. parvum [6] = assay: Air-liquid interface; type: cell-based, Cryptosporidium parvum; conditions: for Time after washout to significant recovery in Cp growth / Cp growth recovery after washout: ALI; for Time after washout to significant recovery in Cp growth: treated at EC50 for two days; for EC50 / EC90: Cryptosporidium parvum; for EC50: read-out: Cp EC50 in ALI cultures; for EC90: read-out: Cp EC90 in ALI cultures
[7] = test system: C. parvum-infected GKO mice; assay: Metabolite treatment of C. parvum-infected GKO mice; type: in vivo, mouse; conditions: 50 mg/kg oral gavage twice daily for 7 days
HCT-8 cells [8] = assay: Seahorse metabolic assays; type: cell-based, human; conditions: 18 h; indole 0.5-2 mM, 7CNI 0.25-1 mM
C. parvum [9] = assay: Antibody and EdU labeling of C. parvum life cycle stages; type: cell-based, Cryptosporidium parvum; conditions: EC90 concentration; for Effect on Cp life cycle progression: first 24 hpi
C. parvum [10] = assay: Sliding window treatment with indoles; type: cell-based, Cryptosporidium parvum; conditions: EC90 concentration
C. parvum [11] = assay: C. parvum growth assay in HCT-8 AhR WT vs AhR KO cell lines; type: cell-based, Cryptosporidium parvum; conditions: 1 mM; 24 h
HCT-8 cells [12] = assay: Transcriptomics; type: cell-based, human; conditions: 880 μM; 4 or 12 h; FDR p < 0.05, absolute fold change > 2
[13] = test system: HCT-8 AhR WT cells or AhR KO cells; assay: Seahorse XF Cell Energy Phenotype Test on HCT-8 AhR WT and AhR KO cells; type: cell-based, human; conditions: 18 h; 0.5, 1 or 2 mM; both HCT-8 WT and AhR KO cells

`C[C@H](CCC(=O)O)[C@H]1CC[C@H]2[C@@H]3CC[C@@H]4C[C@H](O)CC[C@]4(C)[C@H]3CC[C@]12C` [Lithocholic acid] was tested, and the “Effect on Cp growth in the primary metabolite screen” value (C. parvum [1]) was “significantly inhibited Cp growth” and the “Host toxicity in the initial screen” value (HCT-8 cells [2]) was “significant host toxicity at 1 mM”.

For `O=C(O)CCc1c[nH]c2ccccc12` [Indole-3-propionic acid], the “Effect on Cp infection in the indole analog screen” value (C. parvum [3]) was “did inhibit Cp”.

For `CCCCC[C@H](O)/C=C/[C@H]1[C@H](O)CC(=O)[C@@H]1C/C=C\CCCC(=O)O` [Prostaglandin E2], the “Host toxicity in the initial screen” value (HCT-8 cells [2]) was “significant host toxicity at 1 mM”.

In the case of `N#CC(C#N)=NNc1cccc(Cl)c1` [CCCP, carbonyl cyanide m-chlorophenyl hydrazone], the Host toxicity (HCT-8 cells [4]) is reported as “observed host toxicity”, the EC50 (C. parvum [5]; HCT-8 cells, 24 h) is reported as 5 µM and the “MitoTracker staining of Cp mitosomes” value (Cp mitosome) is reported as “decreases MitoTracker staining in the Cp mitosome”.

With `NC(=O)Cc1c[nH]c2ccccc12` [Indole-3-acetamide] the “Effect on Cp infection in the indole analog screen” value (C. parvum [3]) was “exceptions”.

Work on `CC[C@H]1/C=C/C=C/C[C@@H](C)[C@H](O)[C@@](C)(O)C(=O)[C@@H](C)[C@H](O)[C@@H](C)C(=O)[C@@H](C)[C@H](O)[C@@H](C)/C=C/C(=O)O[C@@H]2[C@H](C)[C@H](CC1)O[C@]1(CC[C@H](C)[C@H](C[C@@H](C)O)O1)[C@H]2C` [oligomycin] yielded an EC50 (C. parvum [5]; Cryptosporidium parvum, HCT-8, 24 h) of 20.6 µM.

`Oc1cccc2[nH]ccc12` [4-Hydroxyindole] was tested, and the “Effect on Cp growth in the primary metabolite screen” value (C. parvum [1]) was “significantly inhibited Cp growth” and the EC50 (C. parvum [3]) was 1260 µM.

With `O=C(O)Cc1c[nH]c2ccc(O)cc12` [5-Hydroxyindole-3-acetic acid] the “Effect on Cp growth in the primary metabolite screen” value (C. parvum [1]) was “no effect on Cp”.

With `Cc1ncc(CO)c(C=O)c1O` [Pyridoxal hydrochloride] the “Effect on Cp growth in the primary metabolite screen” value (C. parvum [1]) was “significantly inhibited Cp growth”, the EC50 (C. parvum [3]) was 213 µM and the “Fold Selectivity (HCT-8 EC50 divided by Cp EC50)” value (C. parvum [3]; host value from nuclei count) was 44.6 fold.

With `N#Cc1cccc2cc[nH]c12` [7-cyanoindole] the “Time after washout to significant recovery in Cp growth” value (C. parvum [6]) was 4 days, the EC50 (C. parvum [6]) was 379 µM and the EC90 (C. parvum [6]) was 688 µM. The Body weight [7] was “weighed significantly more than vehicle- or indole-treated mice 5 and 7 dpi”, the Survival rate [7] was “did not significantly increase survival rate” and the “ATP production rate by glycolysis” value (HCT-8 cells [8]) was “remained similar between all treatments”. The “ATP production rate by the mitochondria” value (HCT-8 cells [8]) was “significant reduction in ATP production rate by the mitochondria”, the “MitoTracker staining of Cp mitosomes” value (Cp mitosome) was “significantly decreased MitoTracker staining of Cp mitosomes” and the “Effect on Cp life cycle progression” value (C. parvum [9]) was “delayed progression through sequential life cycle stages”. For the same compound, the “Effect on Cp growth, treatment 0–4 hpi only” value (C. parvum [10]) was “neither indole nor 7CNI inhibited Cp growth” and the “Effect on Cp infection, treatment started 4 hpi (4–24 hpi)” value (C. parvum [10]) was “significantly inhibited Cp infection”.

In the case of `C[C@H](CCC(=O)O)[C@H]1CC[C@H]2[C@@H]3CC[C@@H]4C[C@H](O)CC[C@]4(C)[C@H]3C[C@H](O)[C@]12C` [Deoxycholic acid], the “Effect on Cp growth in the primary metabolite screen” value (C. parvum [1]) is reported as “significantly inhibited Cp growth” and the “Host toxicity in the initial screen” value (HCT-8 cells [2]) is reported as “significant host toxicity at 1 mM”.

In the case of `Cc1c[nH]c2ccccc12` [3-methylindole], the “Effect on Cp infection in the indole analog screen” value (C. parvum [3]) is reported as “did inhibit Cp”.

For `c1ccc2[nH]ccc2c1` [Indole], the “Cp sensitivity to inhibition in AhR KO cells” value (C. parvum [11]) was “remained sensitive”, the “Cp growth recovery after washout” value (C. parvum [6]; treated at 2 × EC90 for two days) was “no recovery was observed” and the “Time after washout to significant recovery in Cp growth” value (C. parvum [6]) was 2 days. The “Cp growth recovery after washout” value (C. parvum [6]; treated at EC90 for two days) was “Some growth recovery (though not significant)”, the EC50 (C. parvum [6]) was 577 µM and the EC90 (C. parvum [6]) was 1890 µM. The Downregulated genes (HCT-8 cells [12]) was 11 genes, the “Genes significantly differentially expressed after treatment” value (HCT-8 cells [12]) was 68 genes and the Upregulated genes (HCT-8 cells [12]) was 57 genes. For the same compound, the “Effect on Cp growth in the primary metabolite screen” value (C. parvum [1]) was “significantly inhibited Cp growth”, the “Mitochondrial basal and stressed respiratory rate” value [13] was “significantly impaired in a dose-dependent manner” and the “Cp oocysts shed in the feces” value [7] was “no significant effect on Cp infection in vivo”. For the same compound, the Median survival time [7] was 17 dpi, the “ATP production rate by glycolysis” value (HCT-8 cells [8]) was “remained similar between all treatments” and the “ATP production rate by the mitochondria” value (HCT-8 cells [8]) was “significant reduction in ATP production rate by the mitochondria”. For the same compound, the “Basal and maximal levels of mitochondrial respiration (OCR)” value (HCT-8 cells [8]) was “significantly reduced both basal levels and maximal levels of mitochondrial respiration”, the Spare respiratory capacity (HCT-8 cells [8]) was “diminished” and the “Total ATP production rate” value (HCT-8 cells [8]) was “lower total ATP production rate”. The “MitoTracker staining of Cp mitosomes” value (Cp mitosome) was “significantly decreased MitoTracker staining of Cp mitosomes”, the EC50 (C. parvum [3]) was 411 µM and the “Morphology of mature merozoites” value (C. parvum [9]; 22 h, 1E12 labeling) was “did not observe any obvious morphological defects in mature merozoites”. For the same compound, the “Effect on Cp life cycle progression” value (C. parvum [9]) was “delayed progression through sequential life cycle stages”, the “Effect on Cp growth, treatment 0–4 hpi only” value (C. parvum [10]) was “neither indole nor 7CNI inhibited Cp growth” and the “Effect on Cp infection, treatment started 4 hpi (4–24 hpi)” value (C. parvum [10]) was “significantly inhibited Cp infection”. For the same compound, the “Effect on Cp infection of pre-treatment of host cells” value (C. parvum [10]; 20 h before infection) was “did not affect subsequent Cp infection”.

`O=C(O)C(O)Cc1c[nH]c2ccccc12` (stereo not drawn) [indole-3-lactic acid] was tested, and the “Effect on Cp infection in the indole analog screen” value (C. parvum [3]) was “exceptions”.

`C[C@H](CCC(=O)O)[C@H]1CC[C@H]2[C@@H]3CC[C@@H]4C[C@H](O)CC[C@]4(C)[C@H]3C[C@H](O)[C@]12C` [Deoxycholate, sodium deoxycholate] was tested, and the “Effect on Cp growth in the primary metabolite screen” value (C. parvum [1]) was “significantly inhibited Cp growth” and the “Host toxicity in the initial screen” value (HCT-8 cells [2]) was “significant host toxicity at 1 mM”.
